Data: ChEMBL document CHEMBL1137249, “Cytostatic and antiviral 6-arylpurine ribonucleosides. Part 7: synthesis and evaluation of 6-substituted purine l-ribonucleosides” (Bioorg Med Chem Lett, 2006)
Active and inactive are the calls of the source. The calls are words filed in the database; no cut-off is given here.

How the values were obtained:
[1] = Cytotoxicity against Huh7 cells expressing HCV con1 replicon; format: cell-based, Huh-7; details: human
Hepatitis C virus [2] = assay: Antiviral activity against HCV con1 replicon by HCV subgenomic replicon assay; format: functional, organism-based, Hepacivirus hominis; details: genotype 1b con1
Hepatitis C virus [3] = assay: Incorporation by HCV con1 NS5Bdelta55 RNA polymerase upto 1mM; details: Hepatitis C virus subtype 1b
[4] = Cytotoxicity against MT4 cells; format: cell-based; details: human
Hepatitis C virus [5] = assay: Inhibition of recombinant HCV con1 NS5Bdelta21 RNA polymerase; parameters: species or system Hepatitis C virus subtype 1b

Row | Compound | EC50 (Hepatitis C virus [2]) | IC50 (Hepatitis C virus [5]) | CC50 [1] | Activity (Hepatitis C virus [3]) | CC50 [4]
1 | Nc1ncnc2c1ncn2[C@H]1O[C@@H](COP(=O)(O)O)[C@H](OP(=O)(O)O)[C@@H]1OP(=O)(O)O |  |  |  | inactive | 
2 | CCc1ncnc2c1ncn2[C@H]1O[C@@H](CO)[C@H](O)[C@@H]1O | > 500 µM |  | > 500 µM |  | 
3 | O=P(O)(O)OC[C@@H]1O[C@H](n2cnc3c(Cc4ccccc4)ncnc32)[C@@H](OP(=O)(O)O)[C@H]1OP(=O)(O)O |  |  |  | inactive | 
4 | OCc1ncnc2c1ncn2[C@H]1O[C@@H](CO)[C@H](O)[C@@H]1O | > 500 µM |  | > 500 µM |  | 
5 | OC[C@@H]1O[C@H](n2cnc3c(-c4ccsc4)ncnc32)[C@@H](O)[C@H]1O | > 50 µM |  | > 50 µM |  | 
6 | OC[C@@H]1O[C@H](n2cnc3c(Cc4ccccc4)ncnc32)[C@@H](O)[C@H]1O | 41 µM | > 100 µM | > 500 µM | inactive | > 500 µM

Now from value to molecule, other results behind:

Row | EC50 (Hepatitis C virus [2]) | IC50 (Hepatitis C virus [5]) | Compound | CC50 [1] | Activity (Hepatitis C virus [3]) | CC50 [4]
7 | > 50 µM |  | COc1ccc(-c2ncnc3c2ncn3[C@H]2OC(CO)[C@H](O)[C@@H]2O)cc1 (single isomer, unassigned) | > 100 µM |  | 
8 | > 500 µM |  | Cc1ncnc2c1ncn2[C@H]1O[C@@H](CO)[C@H](O)[C@@H]1O | > 500 µM |  | 
9 | > 100 µM |  | OC[C@@H]1O[C@H](n2cnc3c(-c4ccccc4)ncnc32)[C@@H](O)[C@H]1O | > 50 µM |  | 
10 | 56 µM |  | OC[C@H]1O[C@H](n2cnc3c(-c4cccs4)ncnc32)[C@@H](O)[C@H]1O | > 100 µM |  | > 100 µM
11 | > 100 µM |  | OC[C@@H]1O[C@H](n2cnc3c(-c4ccco4)ncnc32)[C@@H](O)[C@H]1O | > 100 µM |  | 
